# According to ChEMBL document CHEMBL3881524, “Use of benzothiazepines having activity as inhibitors of ileal bile acid transport for reducing cholesterololemia” (2005):
# Tests used:
# Format in all cases: functional
# Mus musculus [1] = assay: Reduction in plasma cholesterol in LP-remnants in LDL receptor/ApoE deficient mouse at 10 umol/kg/day dosed via gavage route and co-administered with 80 to 100 mg/kg/day mixed with R3 chow diet for 7 days relative to untreated control; design: scale not given: the % may be the effect or the level left
# Mus musculus [2] = assay: Effect on plasma triglyceride level in LDL receptor/ApoE deficient mouse at 10 umol/kg/day dosed via gavage route and co-administered with 80 to 100 mg/kg/day mixed with R3 chow diet for 7 days relative to untreated control
# Mus musculus [3] = assay: Reduction in plasma LDL level in LDL receptor/ApoE deficient mouse at 10 umol/kg/day dosed via gavage route once daily in afternoon for first three days and in morning the last day by FPLC method relative to untreated control; design: scale not given: the % may be the effect or the level left
# Mus musculus [4] = assay: Reduction in plasma cholesterol in LP-remnants plus LDL/HDL ratio level in LDL receptor/ApoE deficient mouse at 10 umol/kg/day dosed via gavage route once daily in afternoon for first three days and in morning the last day by FPLC method relative to untreated control; design: scale not given: the % may be the effect or the level left
# Mus musculus [5] = assay: Effect on plasma triglyceride level in LDL receptor/ApoE deficient mouse at 10 umol/kg/day dosed via gavage route once daily in afternoon for first three days and in morning the last day relative to untreated control
# Mus musculus [6] = assay: Reduction in plasma cholesterol in LP-remnants in LDL receptor/ApoE deficient mouse at 10 umol/kg/day dosed via gavage route once daily in afternoon for first three days and in morning the last day by FPLC method relative to untreated control; design: scale not given: the % may be the effect or the level left
# Mus musculus [7] = assay: Effect on plasma HDL level in LDL receptor/ApoE deficient mouse at 10 umol/kg/day dosed via gavage route once daily in afternoon for first three days and in morning the last day by FPLC method relative to untreated control
# Mus musculus [8] = assay: Reduction in plasma LDL level in LDL receptor/ApoE deficient mouse at […] dosed via gavage route once daily in afternoon for first three days and in morning the last day by FPLC method relative to untreated control; design: scale not given: the % may be the effect or the level left
# Mus musculus [9] = assay: Reduction in plasma total cholesterol level in LDL receptor/ApoE deficient mouse at 10 umol/kg/day dosed via gavage route once daily in afternoon for first three days and in morning the last day by FPLC method relative to untreated control; design: scale not given: the % may be the effect or the level left
# Mus musculus [10] = assay: Reduction in plasma total cholesterol level in LDL receptor/ApoE deficient mouse at 10 umol/kg/day dosed via gavage route and co-administered with 80 to 100 mg/kg/day mixed with R3 chow diet for 7 days relative to untreated control; design: scale not given: the % may be the effect or the level left
# Mus musculus [11] = assay: Reduction in plasma cholesterol in LP-remnants plus LDL/HDL ratio level in LDL receptor/ApoE deficient mouse at 10 umol/kg/day dosed via gavage route and co-administered with 80 to 100 mg/kg/day mixed with R3 chow diet for 7 days relative to untreated control; design: scale not given: the % may be the effect or the level left
# Mus musculus [12] = assay: Reduction in plasma total cholesterol level in LDL receptor/ApoE deficient mouse at 0.625 umol/kg/day dosed via gavage route once daily in afternoon for first three days and in morning the last day by FPLC method relative to untreated control; design: scale not given: the % may be the effect or the level left
# Mus musculus [13] = assay: Effect on plasma HDL level in LDL receptor/ApoE deficient mouse at 10 umol/kg/day dosed via gavage route and co-administered with 80 to 100 mg/kg/day mixed with R3 chow diet for 7 days relative to untreated control
# Mus musculus [14] = assay: Reduction in plasma total cholesterol level in LDL receptor/ApoE deficient mouse at […] dosed via gavage route once daily in afternoon for first three days and in morning the last day by FPLC method relative to untreated control; design: scale not given: the % may be the effect or the level left
# Mus musculus [15] = assay: Reduction in plasma LDL level in LDL receptor/ApoE deficient mouse at 10 umol/kg/day dosed via gavage route and co-administered with 80 to 100 mg/kg/day mixed with R3 chow diet for 7 days relative to untreated control; design: scale not given: the % may be the effect or the level left
# Mus musculus [16] = assay: Reduction in plasma LDL level in LDL receptor/ApoE deficient mouse at 80 to 100 mg/kg/day mixed with R3 chow diet by FPLC method relative to untreated control; design: scale not given: the % may be the effect or the level left
# Mus musculus [17] = assay: Effect on plasma HDL level in LDL receptor/ApoE deficient mouse at 80 to 100 mg/kg/day mixed with R3 chow diet by FPLC method relative to untreated control
Compound,Activity (Mus musculus [1]) [%],Activity (Mus musculus [2]) [%],Activity (Mus musculus [3]),Activity (Mus musculus [4]),Activity (Mus musculus [5]),Activity (Mus musculus [6]),Activity (Mus musculus [7]),Activity (Mus musculus [8]) [%],Activity (Mus musculus [9]),Activity (Mus musculus [10]) [%],Activity (Mus musculus [11]) [%],Activity (Mus musculus [12]) [%],Activity (Mus musculus [13]) [%],Activity (Mus musculus [14]) [%],Activity (Mus musculus [15]) [%],Activity (Mus musculus [16]) [%],Activity (Mus musculus [17]) [%]
CCCC[C@]1(CC)CS(=O)(=O)c2cc(O[C@@H]3O[C@H](C(=O)O)[C@@H](O)[C@H](O)[C@H]3O)ccc2[C@@H](c2ccccc2)N1,69,43,20 - 29%,54 - 55%,7 - 23%,54 - 62%,22 - 36%,14,35 - 42%,64,71,9,15,28,64,–,–
CC(C)c1c(C(=O)Nc2ccccc2)c(-c2ccccc2)c(-c2ccc(F)cc2)n1CC[C@@H](O)C[C@@H](O)CC(=O)[O-].CC(C)c1c(C(=O)Nc2ccccc2)c(-c2ccccc2)c(-c2ccc(F)cc2)n1CC[C@@H](O)C[C@@H](O)CC(=O)[O-].[Ca+2] [ATORVASTATIN CALCIUM],–,–,–,–,–,–,–,–,–,–,–,–,–,–,–,43,22
